Test results as given in publication PMC9154810, “Selective inhibition of carbonic anhydrase IX by sulphonylated 1,2,3-triazole incorporated benzenesulphonamides capable of inducing apoptosis” (Journal of Enzyme Inhibition and Medicinal Chemistry, 2022).

What was measured:
hCA IV = hCA IV (Homo sapiens, UniProt P22748); test: stopped-flow CO2 hydrase assay, hCA IV
Description: (§1) An Sx.18Mv-R Applied Photophysics (Oxford, UK) stopped-flow instrument was used to assay the catalytic activity of various CA isozymes for CO2 hydration reaction.[21]

hCA IX = hCA IX (Homo sapiens, UniProt Q16790); test: stopped-flow CO2 hydrase assay, hCA IX; details: for Selectivity index I/IX: ratio KI hCA I / KI hCA IX; for Selectivity index II/IX: ratio KI hCA II / KI hCA IX
Description: as §1

hCA II = hCA II (Homo sapiens, UniProt P00918); test: stopped-flow CO2 hydrase assay, hCA II
Description: as §1

hCA I = hCA I (Homo sapiens, UniProt P00915); test: stopped-flow CO2 hydrase assay, hCA I; details: mean from three assays, stopped-flow technique, errors ± 5–10%
Sequence of hCA I (P00915 whole entry): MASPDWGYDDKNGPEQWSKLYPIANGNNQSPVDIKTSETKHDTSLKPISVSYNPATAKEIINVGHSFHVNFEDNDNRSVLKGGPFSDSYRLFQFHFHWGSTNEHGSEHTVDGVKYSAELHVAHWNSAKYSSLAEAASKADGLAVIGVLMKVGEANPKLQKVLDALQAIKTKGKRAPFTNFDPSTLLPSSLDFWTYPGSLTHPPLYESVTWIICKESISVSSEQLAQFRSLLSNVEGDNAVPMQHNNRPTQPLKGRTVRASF
Description: as §1

Sequence of hCA IV (P22748 19-312): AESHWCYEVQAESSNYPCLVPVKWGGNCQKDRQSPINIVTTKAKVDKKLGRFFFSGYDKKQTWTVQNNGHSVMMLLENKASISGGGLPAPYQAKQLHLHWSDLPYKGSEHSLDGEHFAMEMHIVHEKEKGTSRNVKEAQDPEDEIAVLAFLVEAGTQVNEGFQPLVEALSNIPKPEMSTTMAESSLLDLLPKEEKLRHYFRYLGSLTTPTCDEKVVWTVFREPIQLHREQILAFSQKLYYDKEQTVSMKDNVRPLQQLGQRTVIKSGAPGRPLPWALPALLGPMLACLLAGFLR

Row | SMILES | Ki (hCA IV) | Ki (hCA IX) | Selectivity index I/IX (hCA IX) | Selectivity index II/IX (hCA IX) | Ki (hCA II) | Ki (hCA I) | melting point | selectivity for hCA IX over hCA I (hCA IX) | selectivity for hCA IX over hCA II (hCA IX)
1 | NS(=O)(=O)c1ccc(-n2nnc(S(=O)(=O)c3ccccc3)c2-c2ccccc2)cc1 [Compound 9a, 4-(5-phenyl-4-(phenylsulphonyl)-1H-1,2,3-triazol-1-yl)benzenesulphonamide] | 149 nM | 21.5 nM | 4.55 | 0.45 | 9.6 nM | 97.9 nM | 214 to 216 °C |  | 
2 | Cc1ccc(-c2c(S(=O)(=O)c3ccccc3)nnn2-c2ccc(S(N)(=O)=O)cc2)cc1 [Compound 9b, 4-(4-(phenylsulphonyl)-5-(p-tolyl)-1H-1,2,3-triazol-1-yl)benzenesulphonamide] | 82.1 nM | 30.9 nM |  | 0.25 | 7.8 nM | 767 nM | 205 to 207 °C |  | 
3 | NS(=O)(=O)c1ccc(-n2nnc(S(=O)(=O)c3ccccc3)c2-c2ccc(F)cc2)cc1 [Compound 9c, 4-(5-(4-fluorophenyl)-4-(phenylsulphonyl)-1H-1,2,3-triazol-1-yl)benzenesulphonamide] | 86.1 nM | 66 nM | 4.00 | 0.10 | 6.6 nM | 264 nM | 207 to 209 °C |  | 
4 | NS(=O)(=O)c1ccc(-n2nnc(S(=O)(=O)c3ccccc3)c2-c2ccc(Cl)cc2)cc1 [Compound 9d, 4-(5-(4-chlorophenyl)-4-(phenylsulphonyl)-1H-1,2,3-triazol-1-yl)benzenesulphonamide] | 526 nM | 25.1 nM | 184.42 | 2.26 | 56.7 nM | 4630 nM | 213 to 215 °C | more than 100 fold | 
5 | NS(=O)(=O)c1ccc(-n2nnc(S(=O)(=O)c3ccccc3)c2-c2ccc(Br)cc2)cc1 [Compound 9e, 4-(5-(4-bromophenyl)-4-(phenylsulphonyl)-1H-1,2,3-triazol-1-yl)benzenesulphonamide] | 801 nM | 30.1 nM | 260.40 | 7.32 | 220 nM | 7840 nM | 198 to 200 °C | more than 100 fold | 
6 | NS(=O)(=O)c1ccc(-n2nnc(S(=O)(=O)c3ccccc3)c2-c2cccc(Br)c2)cc1 [Compound 9f, 4-(5-(3-bromophenyl)-4-(phenylsulphonyl)-1H-1,2,3-triazol-1-yl)benzenesulphonamide] | 94.8 nM | 27.1 nM | 16.00 | 0.34 | 9.2 nM | 434 nM | 282 to 284 °C |  | 
7 | COc1ccc(-c2c(S(=O)(=O)c3ccccc3)nnn2-c2ccc(S(N)(=O)=O)cc2)cc1 [Compound 9g, 4-(5-(4-methoxyphenyl)-4-(phenylsulphonyl)-1H-1,2,3-triazol-1-yl)benzenesulphonamide] | 493 nM | 24.9 nM | 314.73 | 0.25 | 6.2 nM | 7840 nM | 235 to 237 °C | more than 100 fold | 
8 | COc1ccc(-c2c(S(=O)(=O)c3ccccc3)nnn2-c2ccc(S(N)(=O)=O)cc2)cc1Br [Compound 9h, 4-(5-(3-bromo-4-methoxyphenyl)-4-(phenylsulphonyl)-1H-1,2,3-triazol-1-yl)benzenesulphonamide] | 1210 nM | 28.8 nM | 324.62 | 1.30 | 37.6 nM | 9350 nM | 210 to 212 °C | more than 100 fold | 
9 | NS(=O)(=O)c1ccc(-n2nnc(S(=O)(=O)c3ccccc3)c2-c2ccc([N+](=O)[O-])cc2)cc1 [Compound 9i, 4-(5-(4-nitrophenyl)-4-(phenylsulphonyl)-1H-1,2,3-triazol-1-yl)benzenesulphonamide] | 84.7 nM | 32.4 nM |  |  | 4.9 nM | 285 nM |  |  | 
10 | NS(=O)(=O)c1ccc(-n2nnc(S(=O)(=O)c3ccccc3)c2-c2cccc([N+](=O)[O-])c2)cc1 [Compound 9j, 4-(5-(3-nitrophenyl)-4-(phenylsulphonyl)-1H-1,2,3-triazol-1-yl)benzenesulphonamide] | 89.6 nM | 26.3 nM |  |  | 6.1 nM | 45.4 nM |  |  | 
11 | NS(=O)(=O)c1ccc(-n2nnc(S(=O)(=O)c3ccccc3)c2-c2ccc(-c3ccccc3)cc2)cc1 [Compound 9k, 4-(5-([1,1′-biphenyl]-4-yl)-4-(phenylsulphonyl)-1H-1,2,3-triazol-1-yl)benzenesulphonamide] | 414 nM | 24.8 nM | 142.86 | 33.60 | 833 nM | 3540 nM | 214 to 216 °C | more than 100 fold | more than 30 fold
12 | NS(=O)(=O)c1cccc(-n2nnc(S(=O)(=O)c3ccccc3)c2-c2ccccc2)c1 [Compound 10a, 3-(5-phenyl-4-(phenylsulphonyl)-1H-1,2,3-triazol-1-yl)benzenesulphonamide] | 78.6 nM | 26 nM | 23.35 | 6.20 | 161 nM | 607 nM | 172 to 174 °C |  | 
13 | Cc1ccc(-c2c(S(=O)(=O)c3ccccc3)nnn2-c2cccc(S(N)(=O)=O)c2)cc1 [Compound 10b, 3-(4-(phenylsulphonyl)-5-(p-tolyl)-1H-1,2,3-triazol-1-yl)benzenesulphonamide] | 347 nM | 21.2 nM | 26.71 | 1.03 | 21.8 nM | 566 nM | 186 to 188 °C |  | 
14 | NS(=O)(=O)c1cccc(-n2nnc(S(=O)(=O)c3ccccc3)c2-c2ccc(F)cc2)c1 [Compound 10c, 3-(5-(4-fluorophenyl)-4-(phenylsulphonyl)-1H-1,2,3-triazol-1-yl)benzenesulphonamide] | 78.9 nM | 22.8 nM |  |  | 119 nM | 454 nM |  |  | 
15 | NS(=O)(=O)c1cccc(-n2nnc(S(=O)(=O)c3ccccc3)c2-c2ccc(Br)cc2)c1 [Compound 10e, 3-(5-(4-bromophenyl)-4-(phenylsulphonyl)-1H-1,2,3-triazol-1-yl)benzenesulphonamide] | 80.1 nM | 25.1 nM | 25.33 | 5.50 | 138 nM | 636 nM | 96 to 98 °C |  | 
16 | NS(=O)(=O)c1cccc(-n2nnc(S(=O)(=O)c3ccccc3)c2-c2cccc(Br)c2)c1 [Compound 10f, 3-(5-(3-bromophenyl)-4-(phenylsulphonyl)-1H-1,2,3-triazol-1-yl)benzenesulphonamide] | 84.3 nM | 28.6 nM | 24.10 | 12.93 | 370 nM | 689 nM | 97 to 99 °C |  | 
17 | COc1ccc(-c2c(S(=O)(=O)c3ccccc3)nnn2-c2cccc(S(N)(=O)=O)c2)cc1 [Compound 10g, 3-(5-(4-methoxyphenyl)-4-(phenylsulphonyl)-1H-1,2,3-triazol-1-yl)benzenesulphonamide] | 84 nM | 24.1 nM |  |  | 44.3 nM | 509 nM |  |  | 
18 | NS(=O)(=O)c1cccc(-n2nnc(S(=O)(=O)c3ccccc3)c2-c2ccc([N+](=O)[O-])cc2)c1 [Compound 10i, 3-(5-(4-nitrophenyl)-4-(phenylsulphonyl)-1H-1,2,3-triazol-1-yl)benzenesulphonamide] | 64.4 nM | 27 nM |  |  | 35.2 nM | 868 nM |  |  | 
19 | NS(=O)(=O)c1cccc(-n2nnc(S(=O)(=O)c3ccccc3)c2-c2cccc([N+](=O)[O-])c2)c1 [Compound 10j, 3-(5-(3-nitrophenyl)-4-(phenylsulphonyl)-1H-1,2,3-triazol-1-yl)benzenesulphonamide] | 1680 nM | 26.7 nM |  |  | 884 nM | 6900 nM |  |  | 
20 | NS(=O)(=O)c1cccc(-n2nnc(S(=O)(=O)c3ccccc3)c2-c2ccc(-c3ccccc3)cc2)c1 [Compound 10k, 3-(5-([1,1′-biphenyl]-4-yl)-4-(phenylsulphonyl)-1H-1,2,3-triazol-1-yl)benzenesulphonamide] | 849 nM | 22.6 nM | 91.02 | 9.33 | 211 nM | 2060 nM | 74 to 76 °C |  | 
